pKd, pKi: −log10 of the molar value.

For assay [1], the target named is T1, guinea pig histamine H4 receptor (Cavia porcellus, UniProt Q91ZY3). The note with it: read-out: Guinea Pig Ki.
In assay [2] the target is T2, human histamine H4 receptor (Homo sapiens, UniProt Q9H3N8).
Assay [3] concerns the target T2, human histamine H4 receptor. As to conditions: pH 4.
Assay [4] addresses T1, guinea pig histamine H4 receptor. The note with it: read-out: ^3H-histamine Kd.

T2 sequence (Q9H3N8 whole entry): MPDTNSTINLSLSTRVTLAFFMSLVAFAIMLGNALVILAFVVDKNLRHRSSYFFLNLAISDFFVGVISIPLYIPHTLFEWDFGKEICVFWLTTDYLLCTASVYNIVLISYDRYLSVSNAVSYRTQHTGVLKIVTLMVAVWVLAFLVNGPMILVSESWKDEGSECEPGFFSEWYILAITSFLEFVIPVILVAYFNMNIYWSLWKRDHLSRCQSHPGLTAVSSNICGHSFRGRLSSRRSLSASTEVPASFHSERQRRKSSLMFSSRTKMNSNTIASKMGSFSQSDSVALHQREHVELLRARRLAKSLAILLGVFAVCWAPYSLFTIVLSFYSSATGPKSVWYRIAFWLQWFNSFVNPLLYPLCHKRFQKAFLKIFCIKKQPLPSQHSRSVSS

As to `NC(=NCc1ccc(Cl)cc1)SCCCc1cnc[nH]1` [Clobenpropit], the pKi (in general, −log10 of the Ki, conventionally taken in molar units) in assay [1] is 8.44. Take `NCCc1c[nH]cn1` [Histamine]: the negative logarithm of the Ki (pKi) in assay [1] is 7.57. In addition, the “Activation of the receptor (decrease of forskolin-raised cAMP)” value in assay [2] was “specifically activated”. Regarding `N=C(N)SCCc1cnc[nH]1` [Imetit], the pKi in assay [1] is 7.52. The same measure, in the same setting: the figure for `CNCCc1c[nH]cn1` [N-methylhistamine] is 6.66. The same measure, in the same setting: the figure for `C[C@@H](N)Cc1c[nH]cn1` [R-α-methylhistamine] is 6.31; for `S=C(NC1CCCCC1)N1CCC(c2cnc[nH]2)CC1` [Thioperamide] it is 7.08.

With `NCCc1cnc[nH]1` [^3H-histamine], in assay [3], the “Binding affinity in words” value is on record as “high affinity”. Besides, the pKd (as a rule, the negative decadic logarithm of the Kd, by convention in mol/L) in assay [4] was 7.70.

Values taken from patent US7202057B2 (Ortho-McNeil Pharmaceutical, Inc., priority 2000, dated 2007).
